For 87 compounds, melting point results are on record in a melting point compilation (Tetko et al.; mined from patent text by program, amines drawn as free bases though some values may be those of a salt).

What is called melting point is the temperature, or range, at which the solid turns liquid. With `CCCCCCC(O)CCCCCCCCCCC(=O)OC` (configuration not stated), the melting point worked out at 58 °C. `CCOC(=O)CCCCCN1C(=O)c2cccc3cc(N)cc(c23)C1=O` returned a melting point of 108 to 110 °C. Regarding `CCOC(=O)Cc1ccc(-c2cn3ccsc3n2)cc1`, the melting point lay within 117 to 119 °C.

Compound `COC(=S)c1cc(N)ccc1C` had a melting point of 96 to 98 °C. Under `O=C(Nc1c([N+](=O)[O-])cc(F)c(Cl)c1F)C(F)(F)F` stands 124 to 125 °C; under `CCOC(=O)C1(c2ccc3c(c2)OCC(Cc2ccc(-c4ccccc4)cc2)C3=O)CCCC1` (configuration not stated), 50 to 56 °C. Turning to `O=C(O)CN1C(=O)C(O)N(Cc2cccc([N+](=O)[O-])c2)C1=O` (configuration not stated), the melting point was in the range of 123 to 125 °C. `Cc1nc(N)c2ncn(CCOCc3ccncc3)c2c1C` yielded a melting point of 195 to 196 °C. In turn, `N#Cc1ccc(N2C(=O)NC3(CCS(=O)(=O)CC3)C2=O)cc1C(F)(F)F` showed a melting point of 257 to 258 °C. The compound `CC(C)NS(=O)(=O)c1ccc(N2CCC(=O)CC2)cc1` showed a melting point of 103 to 105 °C. `CC12CCCC(C1)OC2=O` (configuration not stated) showed a melting point of 37 to 38 °C. As to `CC(C)(C)OC(=O)N1CCC(c2nc3cc(-c4ccc(C(F)(F)F)cc4)ccc3o2)CC1`, the melting point fell in the range of 166 to 169 °C. `CCCCCCCCS(=O)(=O)CC(CS(=O)(=O)c1ccc(OC)cc1)C(=O)NO` (configuration not stated) had a melting point of 134 °C. Under `CSC1C(=O)Nc2c(Oc3ccccc3)cccc21` (configuration not stated) stands 149 to 150 °C. Compound `CC(=O)OC[C@H](Cc1ccccc1)NC(=O)[C@H](Cc1ccccc1)NC(=O)c1ccccc1` gave a melting point of 186 to 187 °C. The compound `O=S(CCCCCl)Cc1ccc(-c2ccccc2)cc1` (configuration not stated) came in with a melting point of 116 to 117 °C. On to `CCc1cc(OCc2ccc(-c3ccccc3-c3nnn(C(c4ccccc4)(c4ccccc4)c4ccccc4)n3)cc2)c2c(n1)CCN(C(C)=O)C2`, for which the melting point is 97 to 98 °C. In turn, `CCN(CC)CCC(=O)Nc1ccc2c(=O)c3ccc(NC(=O)CCN(CC)CC)cc3[nH]c2c1` yielded a melting point above 320 °C. For the compound `CONC(=O)Cc1cccc(C(=O)c2ccc(Cl)cc2)c1C`, the melting point is 150 °C. The compound `CCOc1cc2c(c3c1OC(C)(C)C3)C(c1cccc(N3C(=O)CNC3=O)c1)=NC(C)(C)C2` registered a melting point of 202 to 204 °C. For `CC(C(=O)N1CCCC1C(=O)O)N(C(=O)C(NC(=O)c1ccccc1)SC(=O)c1ccccc1)C(C)(C)C` (configuration not stated) the value was 97 to 100 °C; for `CCCc1c(OCC(O)CS(=O)(=O)c2ccc(CC(=O)OC)c(Cl)c2Cl)ccc(C(C)=O)c1O` (configuration not stated), 122 to 125 °C. Under `Cc1c(O)cccc1NC(=O)CC12CC3CC(CC(C3)C1)C2` stands 211 °C. `OCc1cccc(-c2ccc3nc(-c4ccc(Cl)cc4)cn3c2)c1F` had a melting point of 200 to 202 °C. `O=Cc1c(-c2ccc(F)cc2)n(CCF)c(=O)c2ccccc12` displayed a melting point of 132 to 134 °C. For `COc1ccc(CC#N)cc1S(=O)(=O)NC(C)(C)C` the value was 146 to 147 °C; for `N#Cc1c(N)oc2ccccc2c1=O`, 315 to 320 °C. Consider `Cc1c(COc2ccc(-c3ccc(S(=O)(=O)NC(C(=O)O)C(C)C)cc3)cc2)oc2ccc(Br)c(OC(C)C)c12` (configuration not stated), for which the melting point fell in the range of 137 to 140 °C.

For `NC(=O)N1CC(Oc2cccc(Br)c2)C1`, the melting point is 188 to 189 °C. With `COc1cn(-c2ccc(N3CCN(C(C)(C)C)C3=O)cc2F)nc(-c2ccnn2-c2ccccc2)c1=O`, the melting point lay in the range of 238 to 239 °C. `CC(C)(C)n1nc2c(S)ncnc2c1O` yielded a melting point above 300 °C. The compound `CSC(N)=Nc1nncs1` registered a melting point of 116 to 117 °C.

With `Cc1noc(-c2ccccc2)c1CCC(N)=O`, the melting point is 149 to 151 °C. For `CS(=O)(=O)c1cc(OCC(O)CNC2CCC(c3ccc(C(=O)N4CCC(C(O)c5ccccc5)CC4)cc3)CC2)ccc1O` (configuration not stated) the value was 120 °C; for `CC(C)(C)OC(=O)C1CCN(C(=O)C2CN(c3ccc(-c4noc(=O)[nH]4)cc3)C(=O)O2)CC1` (configuration not stated), 171 to 175 °C. The compound `O=C(c1ccc(I)cc1)c1cc2c3c(c1)c(-c1cccc(Cl)c1)cc(=O)n3CC2` showed a melting point of 202 °C. `Cc1cc(C)c(Nc2nc(C)ccc2S(=O)(=O)c2ccc(OCc3c(C)cccc3C)cc2)c(C)c1` displayed a melting point of 136 to 138 °C.

Take `CN(C(=O)Cc1ccc([N+](=O)[O-])cc1)C1c2ccccc2CCC1N1CCCC1` (configuration not stated): the melting point amounted to 135 °C. Under `O=C1N[C@H](C(=O)NCCCCO[N+](=O)[O-])CS1` stands 68 to 70 °C; under `O=C1N[C@@H](Cc2ccccc2)[C@@H](COS(=O)(=O)c2ccc([N+](=O)[O-])cc2)O1`, 148 to 150 °C; under `[N-]=[N+]=NCCCc1ccc(C(=O)O)s1`, 71 to 72 °C. For the compound `CCOC(=O)N1CCc2c(sc3nc(-c4ccc(Cl)cc4)cn23)C1`, the melting point lay within 156 to 159 °C. Turning to `COc1ccc2cc(CNc3ccc(O)cc3)ccc2c1`, the melting point was 139 to 140 °C. The compound `CCOc1c(C(=O)O)oc2c3cc(OC)ccc3n(-c3ccccc3)c12` showed a melting point of 166 to 167 °C. Consider `Oc1ccc(Nc2nc(Cl)nc(NCc3ccco3)n2)cc1`, for which the melting point was in the range of 188 to 190 °C.

In the case of `O=C1CC2(CCCC2)CC(=O)N1CCCCN(c1ccncc1)n1c2ccccc2c2ccccc21`, the melting point was 90 to 92 °C. In the case of `O=C(O)c1cccc(Oc2cccc(-c3nn(Cc4ccc(C(F)(F)P(=O)(O)O)c(F)c4)c(=Nc4ccc(Cl)c(Cl)c4)s3)c2)c1`, the melting point is 153 to 156 °C. `CCCCCCCCCCCCC1=C(OC(=O)OC)C(=O)c2ccccc2C1=O` yielded a melting point of 70 to 72 °C.

For `CCOC(=O)c1c[nH]c2ccc(Cc3ccccc3)cc2c1=O`, the melting point lay within 265 to 270 °C. Under `CC1=Cc2cc(C(=O)O)ccc2OC1(C)C` stands 169 to 171 °C; under `Cc1onc(-c2ccccc2)c1-c1cc(F)c(S(C)(=O)=O)c(F)c1`, 140 to 143 °C; under `CCc1nc2c(N)nc3cc(-c4cncc(CO)c4)ccc3c2n1CC(C)(C)O`, above 250 °C. `COCC(C)Nc1cc2c(=O)n(NS(C)(=O)=O)c(=O)[nH]c2cc1[N+](=O)[O-]` (configuration not stated): the melting point lay within 103 to 111 °C.

`CCCCN(Cc1ccc(-c2ccccc2-c2nnn[nH]2)cc1)c1ncccc1CNC(C)=O` showed a melting point of 108 to 110 °C. The compound `Cn1c(C(F)(F)F)cc(=O)n(C(c2ccc3c(c2)C(=O)NC3=O)c2nsc3ccccc23)c1=O` (configuration not stated) displayed a melting point of 204 to 208 °C.

`CC(C)(C)c1cc(C(=O)COc2ccc(C(=O)OCc3ccccc3)c(O)c2)cc(C(C)(C)C)c1O`: the melting point fell in the range of 123 to 124 °C. In turn, `CCC(c1ccc(Cl)nc1)N(Cc1ccc(C(=O)O)cc1)S(=O)(=O)c1ccc(Cl)cc1` (configuration not stated) yielded a melting point of 111 to 113 °C.

Consider `Oc1cnn(-c2ccc(Cl)cc2)c1`, for which the melting point is 127 to 128 °C. `Cc1nc2cnc(Nc3ccc(N4CCNCC4)cn3)nc2n(C2CCCC2)c1=O` showed a melting point of 221 to 223 °C. `Cc1cn(C)c2cc(C(F)(F)F)c(O)cc12` had a melting point of 256 °C.

Turning to `CCOC(=O)c1c[nH]c2c(F)c(C(C)=O)c(F)cc2c1=O`, the melting point lay in the range of 267 to 270 °C. Take `COc1cc(Br)c2nc(-c3ccc(OC)c(F)c3)cc(Cl)c2c1`: the melting point lay within 176 to 177 °C. For `CC(C)CCNC1(c2ccccc2Cl)C(=O)Nc2ccc(Cl)cc21` (configuration not stated) the value was 152 °C; for `Nc1ncnc2c1ncn2[C@H]1C=C[C@@H](O)C1` (racemic), 180 °C; for `O=[N+]([O-])c1ccc(Cl)c(O)c1`, 115 to 117 °C.

In the case of `CCCCC[C@H]1CC[C@H](CCC2CCC(c3ccc(O)cc3)(c3ccc(O)cc3)CC2)CC1`, the melting point is 203 to 204 °C. Consider `CC(C)(C)OC(=O)CCOCCCc1cccc(-c2nc(=O)c3ccccc3s2)n1`, for which the melting point was 71 to 71.9 °C. For the compound `CC1=NC(NC(=O)Nc2cccc(C)c2)C(=O)N(CC(=O)N(C)c2ccccn2)c2c(C)cccc21` (configuration not stated), the melting point lay within 222 to 224 °C. `CC12C=CC(=O)C=C1CCC1C3CC4OCOC4(C(=O)CO)C3(C)CC(O)C12F` (configuration not stated) showed a melting point of 262 °C. For `COc1ccc(COc2cccnc2N)c(F)c1` the value was 135 to 138 °C; for `CN1C(=O)CN=C(c2cccc(Cl)c2)c2cc(C(=O)c3ccc(Cl)cc3)ccc21`, 176 °C; for `O=C(Nc1ccc2[nH]cnc2c1)C(=O)N1CCC(Cc2ccc(F)cc2)CC1`, 104 to 110 °C. Compound `CC(C)(CC(C)(c1ccc(O)cc1)c1ccc(O)cc1)c1ccc(O)cc1` displayed a melting point of 150 to 151 °C. Compound `COC(=O)CC=C1CCC2C3CCC4=CC(=O)CCC4(C)C3CCC12C` (configuration not stated) registered a melting point of 149 to 151 °C. Compound `N#CCSc1nc2cc(Cl)ccc2s1` registered a melting point of 96 to 97 °C. `CCc1nsc(N=C(Cl)N(C)C)c1C#N` yielded a melting point of 95 to 97 °C. With `O=c1[nH]nc(Br)c2ccccc12`, the melting point lay within 268 to 271 °C.

The compound `OCC1Cc2sccc2CN1C(=S)Nc1cccc2cnccc12` (racemic) showed a melting point of 185 °C. Compound `COc1ccc(C2(O)C(=O)Nc3ccc(Cl)cc32)cc1` (configuration not stated) registered a melting point of 202 °C. As to `CCCc1nc(C#N)c(C#N)[nH]1`, the melting point was in the range of 141 to 144 °C. As for `CCN1c2ncccc2C(=O)N(C)c2ccc(-c3cc[nH]c3C(C)=O)nc21`, the melting point is above 80 °C. For `COc1ccc(-c2nnc(SC)nc2-c2ccc(OC)cc2)cc1` the value was 152 to 155 °C; for `Cc1nc(-c2ccccc2)n[nH]c1=O`, 75 to 76 °C; for `CCOC(=O)c1ncn2c1CN=C(c1cccs1)c1cc(C#C[Si](C)(C)C)ccc1-2`, 124 to 127 °C. For the compound `CCC(C)CNC(=O)c1ccc2c(c1)N(C(C)CN(C)CC)c1ccccc1S2` (mixture of isomers), the melting point came to 95 °C.

`Clc1nc2c([nH]1)CCCCC2` had a melting point of 214 to 215 °C. Take `COCc1ccc2c(c1)C=Cc1cc(C)ccc1C2c1cn(Cc2nc(C(=O)O)cs2)c(=O)[nH]c1=S` (configuration not stated): the melting point is 140 °C.
